From patent US6884802B2, “6-heteroarylphenanthridines” (ALTANA Pharma AG, priority 2000, dated 2005)

test system: PDE4; experiment: Inhibition of PDE4 activity ([3H]cAMP hydrolysis, cytosol from human neutrophils); assay type: biochemical; conditions: 0.5 μM cAMP, Motapizone 1 μM included to suppress PDE3, 37° C.
Description: Method for Measuring Inhibition of PDE4 Activity
PDE4 activity was determined as described by Thompson et al. (Adv Cycl Nucl Res 10: 69-92, 1979) with some modifications (Bauer and Schwabe, Naunyn-Schmiedeberg's Arch Pharmacol 311: 193-198, 1980). At a final assay volume of 200 μl (96 well microtiter plates) the assay mixture contained 20 mM Tris (pH 7.4), 5 mM MgCl2, 0.5 μM cAMP, [^3H]cAMP (about 30,000 cpm/assay), the test compound and an aliquot of cytosol from human neutrophils which mainly contains PDE4 activity as described by Schudt et al. (Naunyn-Schmiedeberg's Arch Pharmacol 344: 682-690, 1991); the PDE3-specific inhibitor Motapizone (1 μM) was included to suppress PDE3 activity originating from contaminating platelets. Serial dilutions of the compounds were prepared in DMSO and further diluted 1:100 (v/v) in the assays to obtain the desired final concentrations of the inhibitors at a DMSO concentration of 1% (v/v) which by itself only slightly affected PDE4 activity.
After preincubation for 5 min at 37° C., the reaction was started by the addition of substrate (cAMP) and the assays were incubated for further 15 min at 37° C. 50 μl of 0.2 N HCl was added to stop the reaction and the assays were left on ice for about 10 min. Following incubation with 25 μg 5′-nucleotidase (Crotalus atrox snake venom) for 10 min at 37° C., the assays were loaded on QAE Sephadex A-25 (1 ml bed volume). The columns were eluted with 2 ml of 30 mM ammonium formiate (pH 6.0) and the eluate was counted for radioactivity. Results were corrected for blank values (measured in the presence of denatured protein) which were below 5% of total radioactivity. […] The IC50-values for the compounds according to the invention for the inhibition of the PDE4 activity were determined from the concentration-inhibition curves by nonlinear-regression.

**Q.** COc1cc2c(cc1OC)[C@@H]1CCCC[C@@H]1N=C2c1ccsc1 (relative stereo) [Compound 9, cis-8,9-Dimethoxy-6-(thiophen-3-yl)-1,2,3,4,4a,10b-hexahydrophenanthridine] was tested. Which “Inhibition of PDE4 activity [measured as −logC50 (mol/l)]” value did it give?
**A.** 7.45 −log(mol/l)

**Q.** For COc1cc2c(cc1OC)[C@@H]1CCCC[C@@H]1N=C2c1occc1C (relative stereo) [Compound 16, cis-8,9-Dimethoxy-6-(3-methyl-furan-2-yl)-1,2,3,4,4a,10b-hexahydrophenanthridine], which “Inhibition of PDE4 activity [measured as −logC50 (mol/l)]” value is on record?
**A.** 7.42 −log(mol/l)

**Q.** With COc1cc2c(cc1OC)[C@@H]1CCCC[C@@H]1N=C2c1ccc2ccccc2n1 (relative stereo) [Compound 15, cis-8,9-Dimethoxy-6-(quinolin-2-yl)-1,2,3,4,4a,10b-hexahydrophenanthridine] as the molecule, how does the “Inhibition of PDE4 activity [measured as −logC50 (mol/l)]” value read?
**A.** 7.68 −log(mol/l)

**Q.** COc1cc2c(cc1OC)[C@@H]1CCCC[C@@H]1N=C2c1cc2ccccc2s1 (relative stereo) [Compound 17, cis-8,9-Dimethoxy-6-(benzo[b]thiophen-2-yl)-1,2,3,4,4a,10b-hexahydrophenanthridine] was tested. Which “Inhibition of PDE4 activity [measured as −logC50 (mol/l)]” value did it give?
**A.** 8.84 −log(mol/l)

**Q.** With COc1cc2c(cc1OC)[C@@H]1CCCC[C@@H]1N=C2c1oc2ccccc2c1C (relative stereo) [Compound 20, cis-8,9-Dimethoxy-6-(3-methyl-benzofuran-2-yl)-1,2,3,4,4a,10b-hexahydrophenanthridine] as the molecule, how does the “Inhibition of PDE4 activity [measured as −logC50 (mol/l)]” value read?
**A.** 8.53 −log(mol/l)

**Q.** For COc1cc2c(cc1OC)[C@@H]1CCCC[C@@H]1N=C2c1cc2cc(F)ccc2[nH]1.O=C(O)C(F)(F)F (relative stereo) [Compound 11, cis-8,9-Dimethoxy-6-(5-fluoro-1H-indol-2-yl)-1,2,3,4,4a,10b-hexahydrophenanthridine trifluoroacetate], which “Inhibition of PDE4 activity [measured as −logC50 (mol/l)]” value is on record?
**A.** 8.14 −log(mol/l)

**Q.** How did the “Inhibition of PDE4 activity [measured as −logC50 (mol/l)]” value turn out when COc1cc2c(cc1OC)[C@@H]1CCCC[C@@H]1N=C2c1ccc(C)s1 (relative stereo) [Compound 8, cis-8,9-Dimethoxy-6-(5-methyl-thiophen-2-yl)-1,2,3,4,4a,10b-hexahydrophenanthridine] was run?
**A.** 8.19 −log(mol/l)

**Q.** How did the “Inhibition of PDE4 activity [measured as −logC50 (mol/l)]” value turn out when COc1cc2c(cc1OC)[C@@H]1CCCC[C@@H]1N=C2c1cc2cccc(OC)c2o1 (relative stereo) [Compound 21, cis-8,9-Dimethoxy-6-(7-methoxy-benzofuran-2-yl)-1,2,3,4,4a,10b-hexahydrophenanthridine] was run?
**A.** 8.51 −log(mol/l)

**Q.** With COc1cc2c(cc1OC)[C@@H]1CCCC[C@@H]1N=C2c1ccnc2ccccc12 [Compound 1, (−)-cis-8,9-Dimethoxy-6-quinolin-4-yl-1,2,3,4,4a,10b-hexahydrophenanthridine] as the molecule, how does the “Inhibition of PDE4 activity [measured as −logC50 (mol/l)]” value read?
**A.** 7.4 −log(mol/l)

**Q.** COc1cc2c(cc1OC)[C@@H]1CCCC[C@@H]1N=C2c1cccs1 (relative stereo) [Compound 7, cis-8,9-Dimethoxy-6-(thiophen-2-yl)-1,2,3,4,4a,10b-hexahydrophenanthridine] was tested. Which “Inhibition of PDE4 activity [measured as −logC50 (mol/l)]” value did it give?
**A.** 8.14 −log(mol/l)

**Q.** For COc1ccc2cc(C3=N[C@H]4CCCC[C@H]4c4cc(OC)c(OC)cc43)[nH]c2c1.O=C(O)C(F)(F)F (relative stereo) [Compound 12, cis-8,9-Dimethoxy-6-(6-methoxy-1H-indol-2-yl)-1,2,3,4,4a,10b-hexahydrophenanthridine trifluoroacetate], which “Inhibition of PDE4 activity [measured as −logC50 (mol/l)]” value is on record?
**A.** 8.27 −log(mol/l)

**Q.** With COc1ccc2oc(C3=N[C@H]4CCCC[C@H]4c4cc(OC)c(OC)cc43)cc2c1 (relative stereo) [Compound 23, cis-8,9-Dimethoxy-6-(5-methoxy-benzofuran-2-yl)-1,2,3,4,4a,10b-hexahydrophenanthridine] as the molecule, how does the “Inhibition of PDE4 activity [measured as −logC50 (mol/l)]” value read?
**A.** 8.33 −log(mol/l)

**Q.** With COc1cc2c(cc1OC)[C@@H]1CCCC[C@@H]1N=C2c1cc2ccccc2[nH]1.O=C(O)C(F)(F)F (relative stereo) [Compound 10, cis-8,9-Dimethoxy-6-(1H-indol-2-yl)-1,2,3,4,4a,10b-hexahydrophenanthridine trifluoroacetate] as the molecule, how does the “Inhibition of PDE4 activity [measured as −logC50 (mol/l)]” value read?
**A.** 8.19 −log(mol/l)
